Activity calls are given as the source filed them. The rule behind the calls is not given here.
Key:
[1] = molecular target: T1, Peroxisome proliferator-activated receptor alpha (Homo sapiens) (UniProt Q07869); assay: Agonist activity at recombinant human pFA-CMV fused PPARalpha LBD transfected in HEK293T cells assessed as PPARalpha activation at 1 uM incubated for 12 to 14 hrs by dual glo luciferase reporter gene assay; type: cell-based
T1 sequence (whole entry): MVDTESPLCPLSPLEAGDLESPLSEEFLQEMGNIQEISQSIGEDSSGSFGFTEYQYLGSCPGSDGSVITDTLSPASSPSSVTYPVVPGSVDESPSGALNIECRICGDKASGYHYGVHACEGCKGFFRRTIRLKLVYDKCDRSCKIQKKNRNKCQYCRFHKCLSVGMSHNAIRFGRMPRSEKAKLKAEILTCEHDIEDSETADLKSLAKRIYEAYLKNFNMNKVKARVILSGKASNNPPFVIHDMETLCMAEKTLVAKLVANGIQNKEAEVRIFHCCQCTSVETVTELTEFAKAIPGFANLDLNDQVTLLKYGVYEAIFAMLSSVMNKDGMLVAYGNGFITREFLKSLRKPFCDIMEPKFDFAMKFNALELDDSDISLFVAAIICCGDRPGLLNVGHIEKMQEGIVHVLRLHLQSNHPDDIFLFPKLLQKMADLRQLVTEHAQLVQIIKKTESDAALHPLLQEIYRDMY

[2] = AUC (0 to 3 hrs) in Swiss CD1 mouse at 1 mg/kg, ip measured upto 3 hrs by LC-MS analysis; type: ADME, organism-based; parameters: dose 1 mg/kg, time < 3 hr, route intraperitoneal; conditions: in vivo
[3] = molecular target: Oxysterols receptor LXR-alpha (Homo sapiens) (UniProt Q13133); assay: Agonist activity at recombinant human pFA-CMV fused LXRalpha LBD transfected in HEK293T cells assessed as LXRalpha activation at 1 uM incubated for 12 to 14 hrs by dual glo luciferase reporter gene assay
Chain of Oxysterols receptor LXR-alpha (Homo sapiens) (Q13133 whole entry, looked up, the tested form may be a part): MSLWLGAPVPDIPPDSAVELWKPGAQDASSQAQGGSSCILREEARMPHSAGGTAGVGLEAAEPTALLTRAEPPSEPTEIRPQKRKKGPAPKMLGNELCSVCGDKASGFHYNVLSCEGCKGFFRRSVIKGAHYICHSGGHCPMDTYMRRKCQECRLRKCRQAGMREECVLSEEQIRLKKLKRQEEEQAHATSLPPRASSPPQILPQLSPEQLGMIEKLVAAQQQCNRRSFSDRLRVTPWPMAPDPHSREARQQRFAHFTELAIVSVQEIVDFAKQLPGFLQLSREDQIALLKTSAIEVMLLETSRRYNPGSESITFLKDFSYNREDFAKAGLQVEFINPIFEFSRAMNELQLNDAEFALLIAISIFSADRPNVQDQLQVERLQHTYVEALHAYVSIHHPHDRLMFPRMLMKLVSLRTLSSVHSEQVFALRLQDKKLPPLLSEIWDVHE

[4] = molecular target: T2, Retinoic acid receptor RXR-alpha (Homo sapiens) (UniProt P19793); assay: Antagonist activity at recombinant human pFA-CMV fused RXRalpha LBD transfected in HEK293T cells assessed as reduction in bexarotene-induced RXRalpha activation at 1 uM incubated for 12 to 14 hrs by dual glo luciferase reporter gene assay; type: cell-based
T2 sequence (whole entry): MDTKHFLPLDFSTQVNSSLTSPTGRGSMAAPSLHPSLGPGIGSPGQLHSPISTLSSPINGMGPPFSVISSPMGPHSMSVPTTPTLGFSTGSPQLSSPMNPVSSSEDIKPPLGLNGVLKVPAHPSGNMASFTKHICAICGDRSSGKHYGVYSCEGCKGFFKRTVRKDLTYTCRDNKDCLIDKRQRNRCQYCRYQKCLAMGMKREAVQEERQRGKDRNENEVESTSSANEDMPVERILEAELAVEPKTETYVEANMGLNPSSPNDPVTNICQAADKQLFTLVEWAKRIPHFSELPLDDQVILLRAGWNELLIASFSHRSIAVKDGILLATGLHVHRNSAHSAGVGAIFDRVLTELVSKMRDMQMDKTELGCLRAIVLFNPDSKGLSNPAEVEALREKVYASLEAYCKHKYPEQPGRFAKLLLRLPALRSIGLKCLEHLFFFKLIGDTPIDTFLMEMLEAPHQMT

[5] = molecular target: T3, Bile acid receptor (Homo sapiens) (UniProt Q96RI1); assay: Antagonist activity at recombinant human pFA-CMV fused FXR LBD transfected in HEK293T cells assessed as reduction in GW4064-induced FXR activation at 1 uM incubated for 12 to 14 hrs by dual glo luciferase reporter gene assay; type: cell-based
T3 sequence (whole entry): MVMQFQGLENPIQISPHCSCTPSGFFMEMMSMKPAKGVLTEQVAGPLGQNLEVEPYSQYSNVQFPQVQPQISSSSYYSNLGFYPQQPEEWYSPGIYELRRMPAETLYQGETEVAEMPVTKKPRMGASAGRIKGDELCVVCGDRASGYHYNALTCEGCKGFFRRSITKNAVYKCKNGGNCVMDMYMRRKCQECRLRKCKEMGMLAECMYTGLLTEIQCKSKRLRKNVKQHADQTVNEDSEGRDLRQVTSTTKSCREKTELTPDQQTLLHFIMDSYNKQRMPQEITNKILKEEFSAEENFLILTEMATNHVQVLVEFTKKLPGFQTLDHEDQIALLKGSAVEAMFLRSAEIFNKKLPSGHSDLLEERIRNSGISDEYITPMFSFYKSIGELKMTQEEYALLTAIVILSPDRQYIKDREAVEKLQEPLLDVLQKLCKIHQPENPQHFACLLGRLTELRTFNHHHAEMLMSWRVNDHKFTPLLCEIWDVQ

[6] = molecular target: T4, Peroxisome proliferator-activated receptor delta (Homo sapiens) (UniProt Q03181); assay: Antagonist activity at recombinant human pFA-CMV fused PPARdelta LBD transfected in HEK293T cells assessed as reduction in L165041-induced PPARdelta activation at 1 uM incubated for 12 to 14 hrs by dual glo luciferase reporter gene assay; type: cell-based
T4 sequence (whole entry): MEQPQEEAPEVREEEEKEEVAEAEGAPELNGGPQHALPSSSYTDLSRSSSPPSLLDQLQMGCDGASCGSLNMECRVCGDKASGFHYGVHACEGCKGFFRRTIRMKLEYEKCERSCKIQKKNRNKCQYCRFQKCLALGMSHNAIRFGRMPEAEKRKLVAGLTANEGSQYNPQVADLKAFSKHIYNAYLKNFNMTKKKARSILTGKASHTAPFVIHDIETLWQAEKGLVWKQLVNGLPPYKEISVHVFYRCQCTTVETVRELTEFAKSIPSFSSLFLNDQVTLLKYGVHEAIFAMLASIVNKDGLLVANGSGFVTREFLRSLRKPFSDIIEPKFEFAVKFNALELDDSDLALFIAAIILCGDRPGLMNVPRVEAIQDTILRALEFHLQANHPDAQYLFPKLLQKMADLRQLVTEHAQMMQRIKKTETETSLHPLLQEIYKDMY

[7] = molecular target: T3, Bile acid receptor (Homo sapiens); assay: Agonist activity at recombinant human pFA-CMV fused FXR LBD transfected in HEK293T cells assessed as FXR activation at 1 uM incubated for 12 to 14 hrs by dual glo luciferase reporter gene assay; type: cell-based
[8] = molecular target: T1, Peroxisome proliferator-activated receptor alpha (Homo sapiens); assay: Antagonist activity at recombinant human pFA-CMV fused PPARalpha LBD transfected in HEK293T cells assessed as reduction in GW7647-induced PPARalpha activation at 1 uM incubated for 12 to 14 hrs by dual glo luciferase reporter gene assay; type: cell-based

| Compound | Activity [1] | AUC(0-t) at 3 h [2] | Activity [3] | Activity [4] | Activity [5] | Activity [6] | Activity [7] | Activity [8] |
| --- | --- | --- | --- | --- | --- | --- | --- | --- |
| CCC/C(=C\c1cc(OCc2ccc3nc(C(F)(F)F)cc(OC)c3c2)ccc1OCCN1CCN(C)CC1)C(=O)O | inactive | 112 ng·h/mL | inactive | inactive | inactive | inactive | inactive | inactive |
| CCC/C(=C\c1cc(OCc2ccc3nc(C(F)(F)F)cc(OC)c3c2)ccc1OCC1CCN(C)CC1)C(=O)O | inactive | 101 ng·h/mL | inactive | inactive | inactive | inactive | inactive | inactive |
